Data taken from patent publication US20260085073A1, “PYRAZOLYLCARBOXAMIDE COMPOUNDS AND THEIR USE IN THERAPY” (Hotspot Therapeutics, Inc., priority 2022, published 2026).
pIC50: −log10 of the molar value.

target: T1, MALT1 (Homo sapiens, UniProt Q9UDY8); test: MALT1 inhibition assay (MALT-1 Fluorogenic Peptide Cleavage Assay, Ac-LRSR-AMC substrate); format: biochemical; conditions: Avi-tagged FL MALT-1, 30 min pre-incubation, 90 min reaction at room temperature, fluorescence intensity
T1 construct: Avi-tagged FL MALT-1 (Pharmaron, stored at −70° C.); Avi-tag
T1 sequence (Q9UDY8 1-824): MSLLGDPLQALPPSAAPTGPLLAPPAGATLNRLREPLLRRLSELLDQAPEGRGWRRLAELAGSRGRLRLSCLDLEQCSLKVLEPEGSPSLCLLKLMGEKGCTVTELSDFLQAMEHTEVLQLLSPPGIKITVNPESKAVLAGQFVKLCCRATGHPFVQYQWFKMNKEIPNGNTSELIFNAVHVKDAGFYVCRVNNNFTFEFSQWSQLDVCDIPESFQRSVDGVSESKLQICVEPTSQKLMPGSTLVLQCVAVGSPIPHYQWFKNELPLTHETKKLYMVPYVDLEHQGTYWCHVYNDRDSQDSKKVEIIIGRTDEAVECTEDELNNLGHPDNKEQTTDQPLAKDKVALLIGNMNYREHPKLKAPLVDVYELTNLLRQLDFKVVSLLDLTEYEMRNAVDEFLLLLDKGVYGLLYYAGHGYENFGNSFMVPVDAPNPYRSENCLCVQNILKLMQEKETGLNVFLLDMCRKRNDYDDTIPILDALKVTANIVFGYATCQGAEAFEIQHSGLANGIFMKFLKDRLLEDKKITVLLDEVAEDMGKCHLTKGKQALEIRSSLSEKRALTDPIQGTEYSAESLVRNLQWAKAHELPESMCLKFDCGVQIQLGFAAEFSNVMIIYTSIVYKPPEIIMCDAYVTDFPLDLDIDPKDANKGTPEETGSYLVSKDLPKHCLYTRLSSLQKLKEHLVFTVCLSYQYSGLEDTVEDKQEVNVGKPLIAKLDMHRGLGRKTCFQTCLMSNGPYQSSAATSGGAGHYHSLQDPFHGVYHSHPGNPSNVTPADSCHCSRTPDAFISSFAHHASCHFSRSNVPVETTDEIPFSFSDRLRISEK
Outline: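 Full-length Avi-tagged MALT1 pre-incubated 30 min at room temperature with compounds (2% DMSO final) in HEPES pH 6.89, sodium citrate, TCEP, EDTA, CHAPS buffer. Ac-LRSR-AMC added from 50 µM (Km) or […] working stocks; 90 min at room temperature, AMC fluorescence (ex 342/em 441 nm); IC50 from % inhibition curves.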

**Q.** How did the pIC50 turn out when `Cn1nc(-c2cccc3ncsc23)c(C(F)(F)F)c1C(=O)Nc1ccnc(C2CC2)c1` [Compound I-282] was run?
**A.** < 5.00

**Q.** With `Cc1cn2c(-c3nn(C)c(C(=O)Nc4ccnc(C5CC5)c4)c3C(F)(F)F)cccc2n1` [Compound I-283] as the compound, how does the pIC50 read?
**A.** < 5.00

**Q.** `Cn1nc(-c2cccc3nscc23)c(C(F)(F)F)c1C(=O)Nc1cnc(-n2nccn2)c(Cl)c1` [Compound I-285] was tested. Which pIC50 did it give?
**A.** > 6.30

**Q.** How did the pIC50 turn out when `Cn1nc(-c2cccc3ncsc23)c(C(F)(F)F)c1C(=O)Nc1cnc(-n2nccn2)c(C(F)F)c1` [Compound I-286] was run?
**A.** > 6.30

**Q.** `COc1cc(NC(=O)c2c(C(F)(F)F)c(-c3ccccc3)nn2C)ccn1` [Compound I-287] was tested. Which pIC50 did it give?
**A.** < 5.00

**Q.** With `Cc1cc(NC(=O)c2c(C(F)(F)F)c(-c3ccccc3)nn2C)cc(C)n1` [Compound I-288] as the compound, how does the pIC50 read?
**A.** 5.00 to 5.60

**Q.** How did the pIC50 turn out when `Cn1nc(-c2ccc(F)c3nccn23)c(C(F)(F)F)c1C(=O)Nc1ccnc(C(F)(F)F)c1` [Compound I-291] was run?
**A.** 5.60 to 6.30

**Q.** `CN(C)c1nc2cccc(-c3nn(C)c(C(=O)Nc4ccnc(C(F)(F)F)c4)c3C(F)(F)F)c2s1` [Compound I-292] was tested. Which pIC50 did it give?
**A.** < 5.00

**Q.** With `COc1nc2cccc(-c3nn(C)c(C(=O)Nc4ccnc(C(F)(F)F)c4)c3C(F)(F)F)c2s1` [Compound I-293] as the compound, how does the pIC50 read?
**A.** < 5.00

**Q.** With `COc1nc2cccc(-c3nn(C)c(C(=O)Nc4cnc(-n5nccn5)c(Cl)c4)c3C(F)(F)F)c2s1` [Compound I-294] as the compound, how does the pIC50 read?
**A.** > 6.30

**Q.** With `Cn1nc(-c2cncc3ncccc23)c(C(F)(F)F)c1C(=O)Nc1ccnc(C(F)(F)F)c1` [Compound I-295] as the compound, how does the pIC50 read?
**A.** 5.00 to 5.60

**Q.** How did the pIC50 turn out when `Cn1nc(-c2c(F)ccc3nccn23)c(C(F)(F)F)c1C(=O)Nc1ccnc(C(F)(F)F)c1` [Compound I-296] was run?
**A.** 5.60 to 6.30

**Q.** With `Cc1nc2cccc(-c3nn(C)c(C(=O)Nc4cnc(-n5nccn5)c(Cl)c4)c3C(F)(F)F)c2s1` [Compound I-297] as the compound, how does the pIC50 read?
**A.** > 6.30

**Q.** With `Cc1nc2cccc(-c3nn(C)c(C(=O)Nc4ccnc(C5CC5)c4)c3C(F)(F)F)c2s1` [Compound I-298] as the compound, how does the pIC50 read?
**A.** < 5.00

**Q.** `Cn1nc(-c2cccc3nc(N)sc23)c(C(F)(F)F)c1C(=O)Nc1cnc(-n2nccn2)c(Cl)c1` [Compound I-299, 3-(2-aminobenzo[d]thiazol-7-yl)-N-(5-chloro-6-(2H-1,2,3-triazol-2-yl)pyridin-3-yl)-1-methyl-4-(trifluoromethyl)-1H-pyrazole-5-carboxamide] was tested. Which pIC50 did it give?
**A.** > 6.30
